Measured values from article PMC12571850 (Frontiers in Pharmacology, 2025).

Tests used:
[1] = system: Ba/F3-KIF5B-RET; assay: Cell proliferation (Celltiter-Glo), Ba/F3-KIF5B-RET; assay type: cell-based; settings: anti-proliferative, read-out: IC50 (nM, mean ± SD)
Protocol: (§1) Ba/F3-KIF5B-RET, Ba/F3-CCDC6-RET, Ba/F3-KIF5B-RET-V804L, Ba/F3-KIF5B-RET-V804M, Ba/F3-KIF5B-RET-G810R, and Ba/F3-KIF5B-RET-G810S cells were provided by Kyinno Biotechnology Co., Ltd. The cells were cultured in RPMI 1640 (Biological Industries, Israel) supplemented with 10% fetal bovine serum (Biological Industries, Israel) and 1% Penicillin/Streptomycin solution (Corning, United States). They were incubated at 37 °C in a humidified atmosphere containing 5% CO2, and cell proliferation was evaluated using the Celltiter-Glo luminescent cell viability assay.

[2] = system: Ba/F3-KIF5B-RET-V804L; assay: Cell proliferation (Celltiter-Glo), Ba/F3-KIF5B-RET-V804L; assay type: cell-based; settings: anti-proliferative, read-out: IC50 (nM, mean ± SD)
Protocol: as §1

[3] = system: Ba/F3-KIF5B-RET-V804M; assay: Cell proliferation (Celltiter-Glo), Ba/F3-KIF5B-RET-V804M; assay type: cell-based; settings: anti-proliferative, read-out: IC50 (nM, mean ± SD)
Protocol: as §1

[4] = system: Ba/F3-KIF5B-RET-G810R; assay: Cell proliferation (Celltiter-Glo), Ba/F3-KIF5B-RET-G810R; assay type: cell-based; settings: anti-proliferative, read-out: IC50 (nM, mean ± SD)
Protocol: as §1

[5] = system: Ba/F3-KIF5B-RET-G810S; assay: Cell proliferation (Celltiter-Glo), Ba/F3-KIF5B-RET-G810S; assay type: cell-based; settings: anti-proliferative, read-out: IC50 (nM, mean ± SD)
Protocol: as §1

[6] = system: Ba/F3-CCDC6-RET; assay: Cell proliferation (Celltiter-Glo), Ba/F3-CCDC6-RET; assay type: cell-based; settings: BaF3/CCDC6-RET, anti-proliferative, read-out: IC50 (nM, mean ± SD)
Protocol: as §1

[7] = system: Ba/F3-KIF5B-RET tumor; assay: Ba/F3-KIF5B-RET xenograft mouse model; assay type: in vivo; settings: 3 mg/kg p.o. BID, B-NDG mice
[8] = system: Ba/F3-KIF5B-RET-V804L tumor; assay: Ba/F3-KIF5B-RET-V804L xenograft mouse model; assay type: in vivo; settings: 3 mg/kg p.o. BID, NPSG mice
[9] = system: Ba/F3-KIF5B-RET-G810S tumor; assay: Ba/F3-KIF5B-RET-G810S xenograft mouse model; assay type: in vivo; settings: 10 mg/kg p.o. BID, NOD SCID mice
[10] = system: Ba/F3-KIF5B-RET-G810R tumor; assay: Ba/F3-KIF5B-RET-G810R xenograft mouse model; settings: 10 mg/kg p.o. BID days 0–16, NOD SCID mice

IC50 [1]: 11.5 ± 4.31 nM | IC50 [2]: 16.2 ± 3.22 nM | IC50 [3]: 65.3 ± 20.7 nM | IC50 [4]: 734 ± 56.1 nM | IC50 [5]: 125 ± 19.7 nM | IC50 [6]: 70.3 ± 0.91 nM
SMILES: COc1ccc(CN2C3CC2CN(c2ccc(-c4cc(OCC(C)(C)O)cn5ncc(C#N)c45)cn2)C3)cn1 [Selpercatinib]
tumor growth inhibition (TGI) [7]: 57.06% | TGI [8]: 79.48% | TGI [9]: 82.15% | TGI [10]: 35.37%
